Experimental data from US9340493B2, “Hydroxamic acid derivatives useful as antibacterial agents” (Pfizer Inc., priority 2008, dated 2016).
Converted amounts (≈) assume the structure as drawn.

Legend:
P. aeruginosa PAO280 = test: MIC determination, P. aeruginosa PAO280; type: cell-based; conditions: Pseudomonas aeruginosa, PAO280, read-out: MIC (ug/mL) P. aeruginosa PAO280
Protocol: (§1) MIC determinations: The in vitro antibacterial activity of compounds described in the Examples was evaluated by minimum inhibitory concentration (MIC) testing according to Clinical and Laboratory Standards Institute (CLSI, formerly NCCLS) guidelines. See: Clinical and Laboratory Standards Institute. Methods for Dilution Antimicrobial Susceptibility Tests for Bacteria that Grow Aerobically; Approved Standard-Seventh Edition. CLSI document M7-A7 [ISBN 1-56238-587-9]. Clinical and Laboratory Standards Institute, 940 West Valley Road, Suite 1400, Wayne, Pa. 19087-1898 USA, 2006; also Clinical and Laboratory Standards Institute. Performance Standards for Antimicrobial Susceptibility Testing; Eighteenth Informational Supplement. CLSI document M100-S18 [ISBN1-56238-653-0]. Clinical and Laboratory Standards Institute.
(§2) The following bacterial strains were used:
Pseudomonas aeruginosa PA0280: lacks efflux pumps MexAB-oprM, MexXY and MexZ

[1] = test system: Acinetobacter baumanii/haemolyticus; test: MIC determination, A. baumanii/haemolyticus; type: cell-based; conditions: Acinetobacter baumannii; multidrug-resistant clinical isolate; * = arithmetic mean of 2-6 MIC determinations; read-out: MIC (ug/mL) A. baumanii/haemolyticus
Protocol: as §1, §2
Acinetobacter baumanii/haemolyticus: Multidrug-resistant clinical isolate;

P. aeruginosa UI-18 = test: MIC determination, P. aeruginosa UI-18; type: cell-based; conditions: Pseudomonas aeruginosa, UI18; wild-type; * = arithmetic mean of 2-6 MIC determinations; read-out: MIC (ug/mL) P. aeruginosa UI-18
Protocol: as §1, §2
P. aeruginosa UI-18: Wild-type;

Klebsiella pneumoniae = test: MIC determination, K. pneumoniae; type: cell-based; conditions: ciprofloxacin-resistant, ESBL-expressing clinical isolate, * = arithmetic mean of 2-6 MIC determinations, read-out: MIC (ug/mL) K. pneumoniae
Protocol: as §1, §2
Klebsiella pneumoniae: Ciprofloxacin-resistant isolate, expresses extended-spectrum beta-lactamases (ESBL), clinical isolate;

Escherichia coli EC-1 = test: MIC determination, E. coli EC-1; type: cell-based; conditions: EC1, EC-1: VOGEL, * = arithmetic mean of 2-6 MIC determinations, read-out: MIC (ug/mL) E. coli EC-1
Protocol: as §1, §2
Escherichia coli EC-1: VOGEL;

Enterobacter aerogenes = test: MIC determination, E. aerogenes; type: cell-based; conditions: Klebsiella aerogenes; quinolone-resistant, ESBL-expressing clinical isolate; * = arithmetic mean of 2-6 MIC determinations; read-out: MIC (ug/mL) E. aerogenes
Protocol: as §1, §2
Enterobacter aerogenes: Quinolone-resistant isolate, expresses extended-spectrum beta-lactamases (ESBL), clinical isolate;

[2] = biological target: T1, Pseudomonas aeruginosa LpxC enzyme (Pseudomonas aeruginosa, UniProt P47205); test: IC50 assay, LpxC enzyme from P. aeruginosa; type: biochemical; conditions: 0.5 nM enzyme, 25° C., pH 8.0, 20 min; ** = average of 2-8 assays
T1 construct: made in house; host or cells: E. coli
T1 sequence (P47205 1-303): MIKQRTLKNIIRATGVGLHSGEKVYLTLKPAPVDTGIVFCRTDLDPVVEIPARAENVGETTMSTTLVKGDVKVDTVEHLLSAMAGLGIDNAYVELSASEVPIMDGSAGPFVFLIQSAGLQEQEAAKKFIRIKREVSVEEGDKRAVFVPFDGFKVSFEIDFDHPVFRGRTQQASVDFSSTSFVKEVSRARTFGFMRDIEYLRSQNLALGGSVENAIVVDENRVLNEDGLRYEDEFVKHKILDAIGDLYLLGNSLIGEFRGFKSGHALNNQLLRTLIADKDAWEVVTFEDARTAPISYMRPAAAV
Protocol: IC50 assay, LpxC enzyme from P. aeruginosa: IC50 determination in the LpxC enzyme assay was carried out in a similar manner to that described by S. A. Hyland et al., J. Bacteriology 1997, 179, 2029-2037. [See also T. Kline et al., J. Medicinal Chemistry 2002, 45, 3112-3129.] Briefly, Pseudomonas aeruginosa LpxC enzyme (0.5 nM) purified from E. coli-overexpressing bacteria was incubated at 25° C. in a final volume of 25 ul containing 0.5 uM UDP-3-O—(R-3-hydroxydecanoyl)-N—[^3H-acetyl]glucosamine (B. D. Maxwell and J. C. Bronstein, J. Labeled Compounds and Radiopharmaceuticals 2005, 48, 1049-1054), 1 mg/ml BSA, and 50 mM sodium phosphate buffer, pH 8.0 in the presence and absence of inhibitor compound. At the end of 20 min, 90 ul of a pre-mixed 3% suspension of activated charcoal in 100 mM sodium acetate, pH 7.5, was added to stop the enzyme reaction. The contents of the well were transferred to a filter plate and filtered, and an aliquot of the filtrate was quantitated by liquid scintillation spectrometry. A no-enzyme control was subtracted in order to eliminate background counts.

[3] = test system: Staphylococcus aureus ATCC 29213; test: MIC determination, S. aureus ATCC 29213; type: cell-based; conditions: ATCC29213, CLSI quality control reference strain, * = arithmetic mean of 2-6 MIC determinations, read-out: MIC (ug/mL) S. aureus ATCC 29213
Protocol: as §1, §2
Staphylococcus aureus ATCC 29213: CLSI quality control reference strain; and […]

Structure (SMILES): C[C@@](OCc1ccc(-c2ccccc2)cc1)(C(=O)NO)[C@@H](O)c1ccco1 [Example 13, (2S,3S)-2-(biphenyl-4-ylmethoxy)-3-(2-furyl)-N,3-dihydroxy-2-methylpropanamide]
- MIC (P. aeruginosa PAO280): 0.5 µg/mL (≈ 1.36 µM)
- MIC [1]: > 32 µg/mL
- MIC (P. aeruginosa UI-18): 32 µg/mL (≈ 87.1 µM)
- MIC (Klebsiella pneumoniae): > 32 µg/mL
- MIC (Escherichia coli EC-1): > 32 µg/mL
- MIC (Enterobacter aerogenes): > 32 µg/mL
- IC50 [2]: 0.00163 µM
- MIC [3]: > 32 µg/mL

Structure (SMILES): C[C@@](OCc1ccc(-c2ccccc2)cc1)(C(=O)NO)[C@@H](O)c1ccc(CO)o1 [Example 14, (2S,3S)-2-(biphenyl-4-ylmethoxy)-N,3-dihydroxy-3-[5-(hydroxymethyl)-2-furyl]-2-methylpropanamide]
- MIC (P. aeruginosa PAO280): 0.5 µg/mL (≈ 1.26 µM)
- MIC [1]: > 64 µg/mL
- MIC (P. aeruginosa UI-18): 16 µg/mL (≈ 40.3 µM)
- MIC (Klebsiella pneumoniae): > 64 µg/mL
- MIC (Escherichia coli EC-1): > 64 µg/mL
- MIC (Enterobacter aerogenes): > 64 µg/mL
- IC50 [2]: 0.000582 µM
- MIC [3]: > 64 µg/mL

Structure (SMILES): C[C@@](OCc1ccc(-c2ccccc2)cc1)(C(=O)NO)[C@@H](O)C1CC1 [Example 15, (2S,3S)-2-(biphenyl-4-ylmethoxy)-3-cyclopropyl-N,3-dihydroxy-2-methylpropanamide]
- MIC (P. aeruginosa PAO280): 32 µg/mL (≈ 93.7 µM)
- MIC [1]: > 64 µg/mL
- MIC (P. aeruginosa UI-18): > 64 µg/mL
- MIC (Klebsiella pneumoniae): > 64 µg/mL
- MIC (Escherichia coli EC-1): > 64 µg/mL
- MIC (Enterobacter aerogenes): > 64 µg/mL
- IC50 [2]: 0.0734 µM
- MIC [3]: > 64 µg/mL

Structure (SMILES): C[C@@](OCc1ccc(-c2ccccc2)cc1)(C(=O)NO)[C@@H](O)c1ccno1 [Example 16, (2S,3R)-2-(biphenyl-4-ylmethoxy)-N,3-dihydroxy-3-isoxazol-5-yl-2-methylpropanamide]
- MIC (P. aeruginosa PAO280): 0.125 µg/mL (≈ 0.339 µM)
- MIC [1]: > 64 µg/mL
- MIC (P. aeruginosa UI-18): 8 µg/mL (≈ 21.7 µM)
- MIC (Klebsiella pneumoniae): > 64 µg/mL
- MIC (Escherichia coli EC-1): 64 µg/mL (≈ 174 µM)
- MIC (Enterobacter aerogenes): > 64 µg/mL
- IC50 [2]: 0.00079 µM
- MIC [3]: > 64 µg/mL

Structure (SMILES): C[C@@](OCc1ccc(-c2ccccc2)cc1)(C(=O)NO)[C@@H](O)c1ccccn1 [Example 17, (2S,3S)-2-(biphenyl-4-ylmethoxy)-N,3-dihydroxy-2-methyl-3-pyridin-2-ylpropanamide]
- MIC (P. aeruginosa PAO280): 0.25 µg/mL (≈ 0.661 µM)
- MIC [1]: 32 µg/mL (≈ 84.6 µM)
- MIC (P. aeruginosa UI-18): 8 µg/mL (≈ 21.1 µM)
- MIC (Klebsiella pneumoniae): > 64 µg/mL
- MIC (Escherichia coli EC-1): 16 µg/mL (≈ 42.3 µM)
- MIC (Enterobacter aerogenes): > 64 µg/mL
- IC50 [2]: 0.0015 µM
- MIC [3]: > 64 µg/mL

Structure (SMILES): Cn1nncc1[C@H](O)[C@](C)(OCc1ccc(-c2ccccc2)cc1)C(=O)NO [Example 19, (2S,3S)-2-(biphenyl-4-ylmethoxy)-N,3-dihydroxy-2-methyl-3-(1-methyl-1H-1,2,3-triazol-5-yl)propanamide]
- MIC (P. aeruginosa PAO280): 2 µg/mL (≈ 5.23 µM)
- MIC [1]: > 64 µg/mL
- MIC (P. aeruginosa UI-18): > 64 µg/mL
- MIC (Klebsiella pneumoniae): > 64 µg/mL
- MIC (Escherichia coli EC-1): > 64 µg/mL
- MIC (Enterobacter aerogenes): > 64 µg/mL
- IC50 [2]: 0.00256 µM
- MIC [3]: > 64 µg/mL

Structure (SMILES): C[C@@](OCc1ccc(-c2ccccc2)cc1)(C(=O)NO)[C@@H](O)c1nccs1 [Example 20, (2S,3R)-2-(biphenyl-4-ylmethoxy)-N,3-dihydroxy-2-methyl-3-(1,3-thiazol-2-yl)propanamide]
- MIC (P. aeruginosa PAO280): 1 µg/mL (≈ 2.6 µM)
- MIC [1]: > 64 µg/mL
- MIC (P. aeruginosa UI-18): 16 µg/mL (≈ 41.6 µM)
- MIC (Klebsiella pneumoniae): > 64 µg/mL
- MIC (Escherichia coli EC-1): > 64 µg/mL
- MIC (Enterobacter aerogenes): > 64 µg/mL
- IC50 [2]: 0.000726 µM
- MIC [3]: > 64 µg/mL
